Data as given in ChEMBL document CHEMBL3885881, “DrugMatrix”.

Organism: Rattus norvegicus
Assay: DrugMatrix - Regimen: Daily Repeat
Type: toxicity, organism-based, Sprague-Dawley
Design: regimen Daily Repeat, gender Male, age 6-8 weeks
Details: in vivo, po, route oral GAVAGE, vehicle .5 % CMC; for BASOPHIL / EOSINOPHIL / ERYTHROCYTE COUNT / HEMATOCRIT / LEUKOCYTE COUNT / LYMPHOCYTE / MEAN CORPUSCULAR HEMOGLOBIN / MEAN CORPUSCULAR HEMOGLOBIN CONCENTRATION / MONOCYTE / NEUTROPHIL / PLATELET COUNT / HEMOGLOBIN / MEAN CORPUSCULAR VOLUME: tissue Blood; for ALANINE AMINOTRANSFERASE / ALBUMIN / ASPARTATE AMINOTRANSFERASE / BLOOD UREA NITROGEN / CHOLESTEROL / CREATINE PHOSPHOKINASE / CREATININE / GLUCOSE / PHOSPHORUS / POTASSIUM / SODIUM / TOTAL PROTEIN / ALKALINE PHOSPHATASE: tissue Plasma
[1] = 0 mg/kg, 72 h, dose level Control, time 3 day
[2] = 0 mg/kg, 120 h, dose level Control, time 5 day
[3] = […], 72 h, dose 0.77 mg/Kg, dose level Low, time 3 day
[4] = […], 72 h, dose 7.5 mg/Kg, dose level High, time 3 day
[5] = […], 120 h, dose 0.77 mg/Kg, dose level Low, time 5 day
[6] = […], 120 h, dose 7.5 mg/Kg, dose level High, time 5 day

IVERMECTIN
BASOPHIL [1]: 0% | EOSINOPHIL [1]: 0.33% | ERYTHROCYTE COUNT [1]: 6.03 x10E6/uL | HEMATOCRIT [1]: 38.8% | LEUKOCYTE COUNT [1]: 10.64 x10E3/uL | LYMPHOCYTE [1]: 83.33% | MEAN CORPUSCULAR HEMOGLOBIN [1]: 23.64 pg | MEAN CORPUSCULAR HEMOGLOBIN CONCENTRATION [1]: 36.74 G/DL | MONOCYTE [1]: 3.33% | NEUTROPHIL [1]: 13% | PLATELET COUNT [1]: 1264.4 x10E3/uL | ALANINE AMINOTRANSFERASE [1]: 38.83 u/L | ALBUMIN [1]: 3.55 G/DL | ASPARTATE AMINOTRANSFERASE [1]: 66.17 u/L | BLOOD UREA NITROGEN [1]: 15.67 mg/dL | CHOLESTEROL [1]: 76.5 mg/dL | CREATINE PHOSPHOKINASE [1]: 166.83 u/L | CREATININE [1]: 0.52 mg/dL | GLUCOSE [1]: 173.17 mg/dL | PHOSPHORUS [1]: 11.68 mg/dL | POTASSIUM [1]: 6.43 MEQ/L | SODIUM [1]: 149.5 MEQ/L | TOTAL PROTEIN [1]: 5.93 G/DL | BASOPHIL [2]: 0% | EOSINOPHIL [2]: 0% | ERYTHROCYTE COUNT [2]: 5.88 x10E6/uL | HEMATOCRIT [2]: 37.87% | HEMOGLOBIN [2]: 14.48 G/DL | LEUKOCYTE COUNT [2]: 12.43 x10E3/uL | LYMPHOCYTE [2]: 84.17% | MEAN CORPUSCULAR HEMOGLOBIN [2]: 24.65 pg | MEAN CORPUSCULAR HEMOGLOBIN CONCENTRATION [2]: 38.25 G/DL | MEAN CORPUSCULAR VOLUME [2]: 64.47 fL | MONOCYTE [2]: 4.33% | NEUTROPHIL [2]: 11.5% | PLATELET COUNT [2]: 1182.33 x10E3/uL | ALANINE AMINOTRANSFERASE [2]: 38.67 u/L | ALBUMIN [2]: 3.55 G/DL | ALKALINE PHOSPHATASE [2]: 342.5 u/L | ASPARTATE AMINOTRANSFERASE [2]: 63.33 u/L | BLOOD UREA NITROGEN [2]: 15.5 mg/dL | CHOLESTEROL [2]: 75.5 mg/dL | CREATINE PHOSPHOKINASE [2]: 142.5 u/L | CREATININE [2]: 0.62 mg/dL | GLUCOSE [2]: 165.17 mg/dL | PHOSPHORUS [2]: 10.87 mg/dL | POTASSIUM [2]: 6.85 MEQ/L | SODIUM [2]: 150.17 MEQ/L | TOTAL PROTEIN [2]: 5.93 G/DL | BASOPHIL [3]: 0% | EOSINOPHIL [3]: 0% | ERYTHROCYTE COUNT [3]: 5.86 x10E6/uL | HEMATOCRIT [3]: 37.37% | HEMOGLOBIN [3]: 14 G/DL | LEUKOCYTE COUNT [3]: 13.5 x10E3/uL | LYMPHOCYTE [3]: 81.33% | MEAN CORPUSCULAR HEMOGLOBIN [3]: 23.97 pg | MEAN CORPUSCULAR HEMOGLOBIN CONCENTRATION [3]: 37.5 G/DL | MONOCYTE [3]: 4% | NEUTROPHIL [3]: 14.67% | PLATELET COUNT [3]: 1163.33 x10E3/uL | BASOPHIL [4]: 0% | EOSINOPHIL [4]: 0% | ERYTHROCYTE COUNT [4]: 6.06 x10E6/uL | HEMATOCRIT [4]: 37.9% | HEMOGLOBIN [4]: 13.7 G/DL | LEUKOCYTE COUNT [4]: 13 x10E3/uL | LYMPHOCYTE [4]: 92% | MEAN CORPUSCULAR HEMOGLOBIN [4]: 22.6 pg | MEAN CORPUSCULAR HEMOGLOBIN CONCENTRATION [4]: 36.1 G/DL | MONOCYTE [4]: 4% | NEUTROPHIL [4]: 4% | PLATELET COUNT [4]: 1400 x10E3/uL | ALANINE AMINOTRANSFERASE [3]: 35 u/L | ALKALINE PHOSPHATASE [3]: 418 u/L | ASPARTATE AMINOTRANSFERASE [3]: 56 u/L | BLOOD UREA NITROGEN [3]: 12.67 mg/dL | CHOLESTEROL [3]: 77.33 mg/dL | CREATINE PHOSPHOKINASE [3]: 149.33 u/L | CREATININE [3]: 0.5 mg/dL | PHOSPHORUS [3]: 13.27 mg/dL | POTASSIUM [3]: 6.9 MEQ/L | SODIUM [3]: 150.33 MEQ/L | TOTAL PROTEIN [3]: 5.73 G/DL | ALANINE AMINOTRANSFERASE [4]: 31 u/L | ALKALINE PHOSPHATASE [4]: 420 u/L | ASPARTATE AMINOTRANSFERASE [4]: 57 u/L | CHOLESTEROL [4]: 70 mg/dL | CREATINE PHOSPHOKINASE [4]: 190 u/L | CREATININE [4]: 0.5 mg/dL | PHOSPHORUS [4]: 13.3 mg/dL | POTASSIUM [4]: 6.93 MEQ/L | SODIUM [4]: 150.33 MEQ/L | BASOPHIL [5]: 0% | EOSINOPHIL [5]: 0% | ERYTHROCYTE COUNT [5]: 5.85 x10E6/uL | HEMATOCRIT [5]: 37.25% | HEMOGLOBIN [5]: 14 G/DL | LEUKOCYTE COUNT [5]: 11.3 x10E3/uL | LYMPHOCYTE [5]: 94% | MEAN CORPUSCULAR HEMOGLOBIN [5]: 23.95 pg | MEAN CORPUSCULAR HEMOGLOBIN CONCENTRATION [5]: 37.6 G/DL | MONOCYTE [5]: 0% | NEUTROPHIL [5]: 6% | PLATELET COUNT [5]: 1300.5 x10E3/uL | BASOPHIL [6]: 0% | EOSINOPHIL [6]: 0.33% | ERYTHROCYTE COUNT [6]: 6.11 x10E6/uL | HEMATOCRIT [6]: 40.07% | HEMOGLOBIN [6]: 15 G/DL | LEUKOCYTE COUNT [6]: 16.37 x10E3/uL | LYMPHOCYTE [6]: 90% | MEAN CORPUSCULAR HEMOGLOBIN CONCENTRATION [6]: 37.43 G/DL | MEAN CORPUSCULAR VOLUME [6]: 65.57 fL | MONOCYTE [6]: 1% | PLATELET COUNT [6]: 1335.33 x10E3/uL | ALANINE AMINOTRANSFERASE [5]: 36.33 u/L | ALKALINE PHOSPHATASE [5]: 489 u/L | ASPARTATE AMINOTRANSFERASE [5]: 59.67 u/L | BLOOD UREA NITROGEN [5]: 15.67 mg/dL | CHOLESTEROL [5]: 69.67 mg/dL | CREATINE PHOSPHOKINASE [5]: 135.67 u/L | CREATININE [5]: 0.53 mg/dL | GLUCOSE [5]: 195.33 mg/dL | PHOSPHORUS [5]: 13.07 mg/dL | POTASSIUM [5]: 6.87 MEQ/L | TOTAL PROTEIN [5]: 5.7 G/DL | ALANINE AMINOTRANSFERASE [6]: 29.33 u/L | ALKALINE PHOSPHATASE [6]: 361 u/L | ASPARTATE AMINOTRANSFERASE [6]: 51.67 u/L | BLOOD UREA NITROGEN [6]: 15.67 mg/dL | CHOLESTEROL [6]: 64.67 mg/dL | CREATINE PHOSPHOKINASE [6]: 155.67 u/L | CREATININE [6]: 0.53 mg/dL | GLUCOSE [6]: 166.33 mg/dL | PHOSPHORUS [6]: 13.37 mg/dL | POTASSIUM [6]: 7.1 MEQ/L | SODIUM [6]: 147 MEQ/L | TOTAL PROTEIN [6]: 5.7 G/DL
